Source: patent US11472766B2, “Lipid nanoparticle composition” (Suzhou Abogen Biosciences Co., Ltd., priority 2020, dated 2022)

How the values were obtained:
[1] = Encapsulation efficiency of lipid nanoparticles (Quant-it Ribogreen RNA quantification assay); format: physicochemical; conditions: LNP encapsulating hEPO mRNA
Experimental: (§1) Briefly, a cationic lipid provided herein, DSPC, cholesterol, and PEG-lipid were solubilized in ethanol at a molar ratio of 50:10:38.5:1.5, and mRNA were diluted in 10 to 50 mM citrate buffer, pH=4. The LNPs were prepared at a total lipid to mRNA weight ratio of approximately 10:1 to 30:1 by mixing the ethanolic lipid solution with the aqueous mRNA solution at a volume ratio of 1:3 using a microfluidic apparatus, total flow rate ranging from 9-30 mL/min. Ethanol were thereby removed and replaced by DPBS using dialysis. Finally, the lipid nanoparticles were filtered through a 0.2 μm sterile filter.
(§2) Lipid nanoparticle size were determined by dynamic light scattering using a Malvern Zetasizer Nano ZS (Malvern UK) using a 173° backscatter detection mode. The encapsulation efficiency of lipid nanoparticles were determined using a Quant-it Ribogreen RNA quantification assay kit (Thermo Fisher Scientific, UK) according to the manufacturer's instructions.

[2] = Apparent pKa of LNP formulations (TNS fluorescence assay); conditions: LNP cationic lipid/DSPC/cholesterol/DMG-PEG 50/10/38.5/1.5 mol %
Experimental: The apparent pKa of each formulation was determined using an assay based on fluorescence of 2-(p-toluidino)-6-napthalene sulfonic acid (TNS). LNP formulations comprising of cationic lipid/DSPC/cholesterol/DMG-PEG (50/10/38.5/1.5 mol %) in PBS were prepared as described above. TNS was prepared as a 300 uM stock solution in distilled water. LNP formulations were diluted to 0.1 mg/ml total lipid in 3 mL of buffered solutions containing 50 mM sodium citrate, 50 mM sodium phosphate, 50 mM sodium borate, and 30 mM sodium chloride where the pH ranged from 3 to 9. An aliquot of the TNS solution was added to give a final concentration of 0.1 mg/ml and following vortex mixing fluorescence intensity was measured at room temperature in a Molecular Devices Spectramax iD3 spectrometer using excitation and mission wavelengths of 325 nm and 435 nm. A sigmoidal best fit analysis was applied to the fluorescence data and the pKa value was measured as the pH giving rise to half-maximal fluorescent intensity.

[3] = test system: human erythropoietin (hEPO) mRNA; experiment: Animal study: hEPO expression after tail vein injection of LNPs encapsulating hEPO mRNA (serum ELISA); format: in vivo; conditions: hEPO level, female ICR mice, 0.5 mg/kg, 6 hours post administration; for Expression at 6 h: Table 2; for Expression at 6 h (μg/ml): class symbols, Table 3
Experimental: Lipid nanoparticles comprising compounds 1-10 encapsulating human erythropoietin (hEPO) mRNA were systemically administered to 6-8 week old female ICR mice (Xipuer-Bikai, Shanghai) at 0.5 mg/kg dose by tail vein injection and mice blood were sampled at specific time points (e.g., 6 hours) post administration. In addition to the aforementioned tested groups, lipid nanoparticles comprising dilinoleylmethyl-4-dimethylaminobutyrate (DLin-MC3-DMA, usually abbreviated to MC3) encapsulating hEPO mRNA were similarly administered at the same dose to age and gender comparative groups of mice as a positive control.
Mice were euthanized by CO2 overdoses after the last sampling time point. Serum were separated from total blood by centrifugation at 5000 g for 10 minutes at 4° C., snap-frozen and stored at −80° C. for analysis. ELSA assay were carried out using a commercial kit (DEP00, R&D systems) according to manufacturer's instructions.
Characteristics of tested lipid nanoparticles, including hEPO expression levels (μg/ml) measured from the tested group are listed the tables below and plotted in FIG. 2.

[4] = Lipid nanoparticle size by dynamic light scattering (Malvern Zetasizer Nano ZS); format: physicochemical; conditions: LNP: cationic lipid/DSPC/cholesterol/PEG-lipid 50:10:38.5:1.5, hEPO mRNA
Experimental: as §1, §2

CCCCCCCCC(CCCCCC)COC(=O)CCCCCN(CCCCCC(=O)OCC(CCCCCC)CCCCCCCC)CCN(CCO)C1CCC1 (stereo not drawn) [Compound 1]
Encapsulation Efficiency ([1]; Table 2): 95.7%
Apparant Pka ([2]; Table 2): 6.40
Expression at 6 h [3]: 16.21 µg/mL
polydispersity ([4]; Table 2): 0.168
size nm ([4]; Table 2): 76.5 nm

CCCCCCCCC(CCCCCC)COC(=O)CCCCCN(CCCCCC(=O)OCC(CCCCCC)CCCCCCCC)CCN(CCO)C1CCCCC1 (stereo not drawn) [Compound 2]
Encapsulation Efficiency ([1]; Table 2): 96.8%
Apparant Pka ([2]; Table 2): 6.27
Expression at 6 h [3]: 6.16 µg/mL
polydispersity ([4]; Table 2): 0.065
size nm ([4]; Table 2): 75.3 nm

CCCCCCCCC(CCCCCC)COC(=O)CCCCCN(CCCCCC(=O)OCC(CCCCCC)CCCCCCCC)CCN(CCO)C1CCCCCC1 (stereo not drawn) [Compound 3]
Encapsulation Efficiency ([1]; Table 2): 96.3%
Apparant Pka ([2]; Table 2): 6.22
Expression at 6 h [3]: 2.63 µg/mL
polydispersity ([4]; Table 2): 0.060
size nm ([4]; Table 2): 58.7 nm

CCCCCCCCC(CCCCCC)COC(=O)CCCCCN(CCCCCC(=O)OCC(CCCCCC)CCCCCCCC)CCN(CCO)C1CC1 (stereo not drawn) [Compound 4]
Encapsulation Efficiency ([1]; Table 2): 98.1%
Apparant Pka ([2]; Table 2): 5.87
Expression at 6 h [3]: 0.48 µg/mL
polydispersity ([4]; Table 2): 0.068
size nm ([4]; Table 2): 57.5 nm

CCCCCCCCC(CCCCCC)COC(=O)CCCCCN(CCCCCC(=O)OCC(CCCCCC)CCCCCCCC)CCN(CCO)C1CCCC1 (stereo not drawn) [Compound 5]
Encapsulation Efficiency ([1]; Table 2): 96.2%
Apparant Pka ([2]; Table 2): 6.24
Expression at 6 h [3]: 0.25 µg/mL
polydispersity ([4]; Table 2): 0.029
size nm ([4]; Table 2): 54.0 nm

CCCCCCCCC(CCCCCC)COC(=O)CCCCCN(CCCCCC(=O)OCC(CCCCCC)CCCCCCCC)CCN(CCO)C1CCCCCCC1 (stereo not drawn) [Compound 6]
Encapsulation Efficiency ([1]; Table 2): 96.6%
Apparant Pka ([2]; Table 2): 5.88
Expression at 6 h [3]: 0.00 µg/mL
polydispersity ([4]; Table 2): 0.109
size nm ([4]; Table 2): 60.5 nm

CCCCCCCCC(CCCCCC)COC(=O)CCCCCN(CCCCCC(=O)OCC(CCCCCC)CCCCCCCC)CCN(CCO)c1ccccc1 (stereo not drawn) [Compound 7]
Encapsulation Efficiency ([1]; Table 2): 47.0%
Apparant Pka ([2]; Table 2): 5.39
Expression at 6 h [3]: 0.00 µg/mL
polydispersity ([4]; Table 2): 0.110
size nm ([4]; Table 2): 149.1 nm

CCCCCCCCC(CCCCCC)COC(=O)CCCCCN(CCCCCC(=O)OCC(CCCCCC)CCCCCCCC)CCN(C(=O)CCO)C1CCC1 (stereo not drawn) [Compound 8]
Encapsulation Efficiency ([1]; Table 2): 96.9%
Apparant Pka ([2]; Table 2): 5.84
Expression at 6 h [3]: 0.00 µg/mL
polydispersity ([4]; Table 2): 0.065
size nm ([4]; Table 2): 54.7 nm

CCCCCCCCC(CCCCCC)COC(=O)CCCCCN(CCCCCC(=O)OCC(CCCCCC)CCCCCCCC)CCN(CCCO)C1CCCCC1 (stereo not drawn) [Compound 9]
Encapsulation Efficiency ([1]; Table 2): 93.3%
Apparant Pka ([2]; Table 2): 6.01
Expression at 6 h [3]: 0.86 µg/mL
polydispersity ([4]; Table 2): 0.106
size nm ([4]; Table 2): 77.6 nm

CCCCCCCCC(CCCCCC)COC(=O)CCCCCN(CCCCCC(=O)OCC(CCCCCC)CCCCCCCC)CCN(CCCO)C1CCCCCC1 (stereo not drawn) [Compound 10]
Encapsulation Efficiency ([1]; Table 2): 96.0%
Apparant Pka ([2]; Table 2): 5.83
Expression at 6 h [3]: 0.79 µg/mL
polydispersity ([4]; Table 2): 0.113
size nm ([4]; Table 2): 69.2 nm

CCCCCCCCC(CCCCCC)COC(=O)CCCCCN(CCCCCC(=O)OCC(CCCCCC)CCCCCCCC)C(=O)CN(CCO)C1CCC1 (stereo not drawn) [Compound 11]
Encapsulation Efficiency ([1]; Table 3): 90.9%
Apparant Pka ([2]; Table 3): 5.662
Expression at 6 h (μg/ml) [3]: D (<0.1)
polydispersity ([4]; Table 3): 0.109
size nm ([4]; Table 3): 67.23 nm

CCCCCCCCC(CCCCCC)COC(=O)CCCCCN(CCCCCC(=O)OCC(CCCCCC)CCCCCCCC)C(=O)CCN(CCO)C1CCC1 (stereo not drawn) [Compound 12]
Encapsulation Efficiency ([1]; Table 3): 99.80%
Apparant Pka ([2]; Table 3): 5.801
Expression at 6 h (μg/ml) [3]: D (<0.1)
polydispersity ([4]; Table 3): 0.015
size nm ([4]; Table 3): 75.86 nm

CCCCCCCCC(CCCCCC)COC(=O)CCCCCN(CCCCCC(=O)OCC(CCCCCC)CCCCCCCC)C(=O)CCCN(CCO)C1CCC1 (stereo not drawn) [Compound 13]
Encapsulation Efficiency ([1]; Table 3): 96.8%
Apparant Pka ([2]; Table 3): 7.206
Expression at 6 h (μg/ml) [3]: C (≥0.1 and <1)
polydispersity ([4]; Table 3): 0.095
size nm ([4]; Table 3): 89.96 nm

CCCCCCCCC(CCCCCC)COC(=O)CCCCCC(CCCCCC(=O)OCC(CCCCCC)CCCCCCCC)CN(C)CCO (stereo not drawn) [Compound 14]
Encapsulation Efficiency ([1]; Table 3): 94.9%
Apparant Pka ([2]; Table 3): 9.356
Expression at 6 h (μg/ml) [3]: C (≥0.1 and <1)
polydispersity ([4]; Table 3): 0.172
size nm ([4]; Table 3): 60.13 nm

CCCCCCCCC(CCCCCC)COC(=O)CCCCCC(CCCCCC(=O)OCC(CCCCCC)CCCCCCCC)CN(CCO)C1CCC1 (stereo not drawn) [Compound 15]
Encapsulation Efficiency ([1]; Table 3): 89.8%
Apparant Pka ([2]; Table 3): 9.21
Expression at 6 h (μg/ml) [3]: D (<0.1)
polydispersity ([4]; Table 3): 0.313
size nm ([4]; Table 3): 51.17 nm

CCCCCCCCC(CCCCCC)COC(=O)CCCCCC(CCCCCC(=O)OCC(CCCCCC)CCCCCCCC)CN(CC)CCO (stereo not drawn) [Compound 16]
Encapsulation Efficiency ([1]; Table 3): 98.87%
Apparant Pka ([2]; Table 3): 4.403
Expression at 6 h (μg/ml) [3]: D (<0.1)
polydispersity ([4]; Table 3): 0.225
size nm ([4]; Table 3): 54.69 nm

CCCCCCCCC(CCCCCC)COC(=O)CCCCCC(CCCCCC(=O)OCC(CCCCCC)CCCCCCCC)CCCN(C)CCO (stereo not drawn) [Compound 18]
Encapsulation Efficiency ([1]; Table 3): 100.16%
Apparant Pka ([2]; Table 3): 6.327
Expression at 6 h (μg/ml) [3]: C (≥0.1 and <1)
polydispersity ([4]; Table 3): 0.15
size nm ([4]; Table 3): 71.85 nm

CCCCCCCCC(CCCCCC)CC(=O)OCCCCCN(CCCCCOC(=O)CC(CCCCCC)CCCCCCCC)CCN(CCO)C1CCC1 (stereo not drawn) [Compound 20]
Encapsulation Efficiency ([1]; Table 3): 98.1%
Apparant Pka ([2]; Table 3): 6.252
Expression at 6 h (μg/ml) [3]: A (≥2)
polydispersity ([4]; Table 3): 0.103
size nm ([4]; Table 3): 76.79 nm

CCCCCCCCC(CCCCCC)COC(=O)CCCCCN(CCCCCC(=O)OCC(CCCCCC)CCCCCCCC)CCN(CCO)C1CCC(O)CC1 (stereo not drawn) [Compound 21]
Encapsulation Efficiency ([1]; Table 3): 100.6%
Apparant Pka ([2]; Table 3): 7.652
Expression at 6 h (μg/ml) [3]: D (<0.1)
polydispersity ([4]; Table 3): 0.077
size nm ([4]; Table 3): 75.26 nm

CCCCCCCCC(CCCCCC)COC(=O)CCCCCN(CCCCCC(=O)OCC(CCCCCC)CCCCCCCC)CCN(CCO)C1CC(O)C1 (stereo not drawn) [Compound 22]
Encapsulation Efficiency ([1]; Table 3): 98.3%
Apparant Pka ([2]; Table 3): 6.884
Expression at 6 h (μg/ml) [3]: D (<0.1)
polydispersity ([4]; Table 3): 0.081
size nm ([4]; Table 3): 71.2 nm

CCCCCCCCC(CCCCCC)CC(=O)COCCCCN(CCCCCOC(=O)CC(CCCCCC)CCCCCCCC)CCN(CCO)C1CC1 (stereo not drawn) [Compound 24]
Encapsulation Efficiency ([1]; Table 3): 95.4%
Apparant Pka ([2]; Table 3): 6.087
Expression at 6 h (μg/ml) [3]: C (≥0.1 and <1)
polydispersity ([4]; Table 3): 0.077
size nm ([4]; Table 3): 64.96 nm

CCCCCCCCC(CCCCCC)CC(=O)COCCCCN(CCCCCOC(=O)CC(CCCCCC)CCCCCCCC)CCN(CCO)C1CCCC1 (stereo not drawn) [Compound 25]
Encapsulation Efficiency ([1]; Table 3): 96.7%
Apparant Pka ([2]; Table 3): 6.334
Expression at 6 h (μg/ml) [3]: A (≥2)
polydispersity ([4]; Table 3): 0.032
size nm ([4]; Table 3): 74.3 nm

CCCCCCCCC(CCCCCC)CC(=O)COCCCCN(CCCCCOC(=O)CC(CCCCCC)CCCCCCCC)CCN(CCO)C1CCCCCC1 (stereo not drawn) [Compound 27]
Encapsulation Efficiency ([1]; Table 3): 96.7%
Apparant Pka ([2]; Table 3): 6.153
Expression at 6 h (μg/ml) [3]: C (≥0.1 and <1)
polydispersity ([4]; Table 3): 0.133
size nm ([4]; Table 3): 58.44 nm

CCCCCCCCC(CCCCCC)COC(=O)CCCCCN(CCCCCC(=O)OCC(CCCCCC)CCCCCCCC)CCN(CCCO)C1CCC1 (stereo not drawn) [Compound 28]
Encapsulation Efficiency ([1]; Table 3): 96.5%
Apparant Pka ([2]; Table 3): 6.529
Expression at 6 h (μg/ml) [3]: A (≥2)
polydispersity ([4]; Table 3): 0.002
size nm ([4]; Table 3): 79.82 nm

CCCCCCCCC(CCCCCC)COC(=O)CCCCCN(CCCCCC(=O)OCC(CCCCCC)CCCCCCCC)CCN(CCCCO)C1CCC1 (stereo not drawn) [Compound 29]
Encapsulation Efficiency ([1]; Table 3): 97.2%
Apparant Pka ([2]; Table 3): 6.477
Expression at 6 h (μg/ml) [3]: A (≥2)
polydispersity ([4]; Table 3): 0.078
size nm ([4]; Table 3): 85.17 nm

CCCCC/C=C\C/C=C\CCCCCCCCC(CCCCCCCC/C=C\C/C=C\CCCCC)OC(=O)CCCN(C)C [MC3, dilinoleylmethyl-4-dimethylaminobutyrate, reference compound]
Encapsulation Efficiency ([1]; Table 2): 98.5%
Expression at 6 h [3]: 2.35 µg/mL
polydispersity ([4]; Table 2): 0.042
size nm ([4]; Table 2): 79.8 nm
